Values quoted from earlier work, collected in PMC7289749 (European Journal of Medicinal Chemistry, 2020).
Read-outs that look alike come from different tables or passages of the source.

Assays:
SARS-CoV-2 Mpro = conditions: read-out: SARS-CoV-2 Mpro inhibitory activity IC50
SARS-CoV-2 [1] = conditions: read-out: inhibition on the replication of SARS-CoV-2 EC50; dose-dependent
SARS-CoV-2 [2] = conditions: for EC50: read-out: EC50 (half-maximal effective concentration)
SARS-CoV-2 [3] = system: SARS-CoV-2
Vero E6 cells = conditions: read-out: CC50 (half-maximal cytotoxic concentration)
[4] = in animals, relative to CQ
SARS-CoV-2 [5] = conditions: human liver cancer Huh-7 cells

| Molecule | selectivity index (SI) (SARS-CoV-2 [2]; CC50/EC50, Vero E6 cells) | CC50 (Vero E6 cells) [µM] | further results |
| --- | --- | --- | --- |
| O=c1cc(-c2ccccc2)oc2cc(O)c(O)c(O)c12 [Baicalein] | – | – | IC50 (SARS-CoV-2 Mpro): […]; EC50 (SARS-CoV-2 [1]): 1.69 µM |
| CCN(CC)CCCC(C)Nc1ccnc2cc(Cl)ccc12 (stereo not shown) [Chloroquine] | > 88.50 | – | – |
| O=c1c2ccccc2[se]n1-c1ccccc1 [Ebselen] | – | – | anti-viral activity in cell-based assays (SARS-CoV-2 [3]): effective anti-viral activity |
| NC(=O)c1nc(F)c[nH]c1=O [Favipiravir] | – | > 400 | – |
| CCN(CCO)CCCC(C)Nc1ccnc2cc(Cl)ccc12 (stereo not shown) [Hydroxychloroquine] | – | – | less toxic than CQ [4]: about 40% |
| N=C(N)Nc1ccc(C(=O)Oc2ccc3cc(C(=N)N)ccc3c2)cc1 [Nafamostat] | – | – | selectivity index (SI) (SARS-CoV-2 [2]): > 4.44 |
| CC(=O)Oc1ccccc1C(=O)Nc1ncc([N+](=O)[O-])s1 [Nitazoxanide] | > 16.76 | > 35.5 | EC50 (SARS-CoV-2 [2]): 2.12 µM |
| Nc1nc2c(ncn2CCC(CO)CO)c(=O)[nH]1 [Penciclovir] | > 4.17 | > 400 | EC50 (SARS-CoV-2 [2]): 96 µM |
| NC(=O)c1ncn([C@@H]2O[C@H](CO)[C@@H](O)[C@H]2O)n1 [Ribavirin] | > 3.65 | > 400 | – |
| Remdesivir | – | – | inhibition of virus infection (SARS-CoV-2 [5]): inhibited virus infection |
